# From patent US20230137943A1, “PHOTOPROXIMITY PROFILING OF PROTEIN-PROTEIN INTERACTIONS IN CELLS” (The University of Chicago, priority 2019, published 2023)
# Columns and labels:
# [1] = target: T1, FLAG-tagged SNAP-Tag protein (SNAP-FLAG) (Homo sapiens, UniProt P16455, A127T/A154D/C150Q/C62A/E30R/G131K/G132T/G153L/K125A/K32I/L33F/M134L/N157G/Q115S/Q116H/R128A/R135S/S151G/S152D/S159E); assay: PP1 dose response: covalent labeling of SNAP-FLAG in live cells (Western blot); format: cell-based; conditions: HEK293T cells stably expressing SNAP-FLAG, increasing doses for two hours, not irradiated
# T1 construct: expressed in transfected cells
# T1 sequence (P16455 1-182 E30R/K32I/L33F/C62A/Q115S/Q116H/K125A/A127T/R128A/G131K/G132T/M134L/R135S/C150Q/S151G/S152D/G153L/A154D/N157G/S159E limits assumed): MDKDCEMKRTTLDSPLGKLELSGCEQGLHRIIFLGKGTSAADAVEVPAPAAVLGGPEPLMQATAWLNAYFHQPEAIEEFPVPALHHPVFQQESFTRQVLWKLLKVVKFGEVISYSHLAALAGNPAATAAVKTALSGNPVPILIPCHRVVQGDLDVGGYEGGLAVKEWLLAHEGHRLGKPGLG
# Protocol: PP1 close response and viability assay: Dose response—Each well of a 6-well plate was seeded with 300,000 HEK293T cells stably expressing either SNAP-FLAG or KEAP-SNAP. After reaching ˜90% confluency the growth media was removed, cells washed with DPBS, and treated with varying concentrations (0, 0.5, 1, 5, 15, 45 μM) of photoproximity probe PP1 in 500 μL serum-free DMEM for 2 hours at 37° C. Post treatment, media was aspirated and non-reacted probe washed out with 3 mL full DMEM over 40 minutes, changing the media twice. Cells were harvested, washed, and lysed in DPBS containing protease inhibitor using a tip sonicator. Lysate was normalized to 1 mg/mL then diluted with loading buffer and run on SDS-PAGE gel that was transferred by western blot to nitrocellulose. The nitrocellulose membrane was stained for biotin and Flag-Tag using streptavidin IR dye (Li-cor #926-32230; Li-cor Biosciences, Lincoln, Nebr., United States of America) and anti-Flag (Sigma #F3165, Sigma-Aldrich, St. Louis, Mo., United States of America; Li-cor #926-68072, Li-cor Biosciences, Lincoln, Nebr., United States of America). Fluorescence images were collected using an Odyssey infrared imager (Li-cor Biosciences, Lincoln, Nebr., United States of America). […]
# [2] = test system: HEK293T cells stably expressing SNAP-FLAG; assay: Viability assay (CellTiter-Glo, relative ATP content); format: cell-based, human; conditions: 2 hours at 37° C.
# Protocol: Viability assay: HEK293T cells stably expressing SNAP-FLAG were seeded with at 5,000 cells per well in 50 μL DMEM in a 96-well plate. Twenty-four hours later, cells were treated with a varying concentration (0, 0.5, 1, 5, 15, 45 μM in sextuplicate) of photoproximity probe PP1 in a total volume of 100 μL DMEM. After 2 hours at 37° C., a 100 μL of CellTiter-Glo® (Promega Corporation, Madison, Wis., United States of America; 5-fold DPBS dilution) was added and the plate imaged using a SYNERGY™ Neo HST plate reader (BioTek, Winooski, Vt., United States of America).
# To determine if AC1 affects cell viability, a viability assay was performed. Briefly, HEK293T cells stably expressing Snap-Flag were seeded at 5,000 cells per well in 100 μL DMEM in a 96-well plate. Upon >90% confluency, media was gently removed and cells were treated with a varying concentration (0, 1, 5, 10, 15, 20, 50 uM) in sextuplicate of AC-1 in a total volume of 75 μL DMEM. After 2 hours at 37° C., media was aspirated and cells were gently washed with […] of serum free DMEM. […] Luminescence was recorded using a SYNERGY™ Neo HST plate reader (BioTek, Winooski, Vt., United States of America).
# HEK293T cells stably expressing Snap-Flag were seeded at 5,000 cells per well in 100 μL DMEM in a 96-well plate. […] Luminescence was recorded using a SYNERGY™ Neo HST plate reader (BioTek, Winooski, Vt., United States of America).
EC50 [1] [µM],SMILES,Cell viability ([2]; PP1 0-45 μM (saturating doses)),Cell growth or viability ([2]; AC1 0-50 uM)
4.5,COc1cc(C(C)OC(=O)NC(CCCCNC(=O)CCC2(C)N=N2)C(=O)NCCCCCNC(=O)CCCCC2SCC3NC(=O)NC32)c([N+](=O)[O-])cc1OCCCC(=O)NCc1ccc(COc2nc(N)nc3[nH]cnc23)cc1 (stereo not drawn) [PP1],not affected,
,COc1cc(COC(=O)NC(CCCCNC(=O)CCC2(C)N=N2)C(=O)NCCCCC2SCC3NC(=O)NC32)c([N+](=O)[O-])cc1OCCCC(=O)NCc1ccc(COc2nc(N)nc3[nH]cnc23)cc1 (stereo not drawn) [AC1],,does not impair cell growth or viability
